US20120101157A1, “4,5-Diamino-3-Halo-2-Hydroxybenzoic Acid Derivatives and Preparations Thereof” (NATIONAL DEFENSE MEDICAL CENTER, priority 2010, published 2012)
Values after ≈ are worked out from the molar mass of the structure shown. “Also recorded” adds a separate entry of the source. Read-outs that look alike come from different tables or passages of the source.

Key:
H1N1 virus = assay: microbe, parasite or virus in culture; type: cell-based; settings: for MIC: Influenza A virus, read-out: MIC (minimum inhibitory concentration, cell survival rate >75%); for anti-H1N1 / anti-influenza activity (in words) / SI (selective index=CC50/MIC): H1N1 in MDCK cells
in vitro = settings: dog
H5N1 = settings: read-out: EC50 (50% effective concentration); H5N1, according to previous studies; cited from earlier work
[1] = H1N1 at 0.01 MOI in MDCK cells, 48 h, MTT

Structure (SMILES)	MIC (H1N1 virus; H1N1, 48 h) [µg/mL]	CC50 (in vitro) [µg/mL]	EC50 (H5N1) [µM]	anti-H1N1 / anti-influenza activity (in words) (H1N1 virus)	MIC (H1N1 virus; [1]) [µg/mL]	melting point [°C]	SI (selective index=CC50/MIC) (H1N1 virus)
Nc1ccc(C(=O)O)c(O)c1 [PAS, p-aminosalicylic acid, reference compound]	> 100	> 100	–	–	–	–	–
NC(=O)c1ncn([C@@H]2O[C@H](CO)[C@@H](O)[C@H]2O)n1 [Ribavirin, reference compound]	1.56 (≈ 6.39 µM)	–	6 to 22	–	–	–	–
CC(=O)Nc1cc(O)c(C(=O)O)cc1N [compound 6a]	–	> 100	–	better anti-H1N1 activity; also recorded: effectively inhibit influenza viral activity	50 (≈ 238 µM)	295 to 297	–
COC(=O)c1cc(N)c(NC(C)=O)cc1O [compound 6b]	–	> 100	–	better anti-H1N1 activity; also recorded: effectively inhibit influenza viral activity; also recorded: preferred anti-influenza activity	1.56 (≈ 6.96 µM)	204 to 206	–
CCCC(=O)Nc1cc(O)c(C(=O)OCC)cc1N [compound 6e]	–	> 100	–	better anti-H1N1 activity; also recorded: effectively inhibit influenza viral activity; also recorded: preferred anti-influenza activity	1.56 (≈ 5.86 µM)	135 to 137	>64
COC(=O)c1cc(N)c(NC(C)=O)c(Br)c1O [compound 6f, methyl 4-(acetamido)-5-amino-3-bromo-2-hydroxybenzoate]	–	> 100	–	better anti-H1N1 activity; also recorded: effectively inhibit influenza viral activity; also recorded: preferred anti-influenza activity	0.78 (≈ 2.57 µM)	217 to 219	>128
CC(=O)Nc1cc(O)c(C(=O)O)cc1NC(=N)N [compound 7a, 4-(acetamido)-5-guanidino-2-hydroxybenzoic acid]	–	> 100	–	better anti-H1N1 activity; also recorded: effectively inhibit influenza viral activity	25 (≈ 99.1 µM)	334 to 357	–
COC(=O)c1cc(NC(=N)N)c(NC(C)=O)cc1O [compound 7b, methyl 4-(acetamido)-5-guanidino-2-hydroxybenzoate]	–	> 100	–	better anti-H1N1 activity; also recorded: effectively inhibit influenza viral activity	25 (≈ 93.9 µM)	233 to 234	–
CCCC(=O)Nc1cc(O)c(C(=O)OCC)cc1NC(=N)N [compound 7e, ethyl 4-(butyramido)-5-guanidino-2-hydroxybenzoate]	–	> 100	–	no inhibiting activity	> 100	–	–
COC(=O)c1cc(NC(=N)N)c(NC(C)=O)c(Br)c1O [compound 7f, methyl 4-(acetamido)-3-bromo-5-guanidino-2-hydroxybenzoate]	–	> 100	–	no inhibiting activity	> 100	238 to 240	–
CC(=O)Nc1c(N)cc(C(=O)O)c(O)c1Br [compound 8, 4-(acetamido)-5-amino-3-bromo-2-hydroxybenzoic acid]	–	> 100	–	better anti-H1N1 activity; also recorded: effectively inhibit influenza viral activity; also recorded: preferred anti-influenza activity	1.56 (≈ 5.4 µM)	210 to 211	–
